In patent US4242354A, “2-(2-Thenolythio)-propionylglycine: method for its preparation and pharmaceutical formulations containing said compound” (Mediolanum Farmaceutici S.r.L., priority 1978, dated 1980):

Assays:
[1] = system: bromobenzene poisoning; test: Protective activity in the bromobenzene poisoning; assay type: in vivo, male rats (Sprague-Dawley)
Method: Fifty male rats (Sprague-Dawley, 180-200 g bodyweight) were used for the investigation, subdivided into 5 groups, each consisting of 10 animals, given orally the following compounds
(1) 5 percent gum arabic in tap water
(2) 5 percent gum arabic in tap water
(3) 2-(2-thenoylthio)-propionylglycine--200 mg/kg
(4) 2-(2-thenoylthio)-propionylglycine--300 mg/kg
Seven days later, the animals of the groups 2-3-4-[…] were given bromobenzene subcutaneously (150 mg/rat) while the remaining group (control) was given an equivalent volume of saline. Still seven days later, 5 of the animals of each group were given Nembutal (25 mg/kg/intraperitoneally), and the sleeping time was calculated.
The remaining 5 animals of each group were given bromophthalein at the dose of 50 mg intravenously; thirty minutes later, the animals were sacrificed and both the present bromophthalein and SGPT (serum glutamic pyruvic transaminase) were established in the blood.

[2] = physchem
Method: The stability tests were carried out according to the Rogers' nonisothermic method suitably integrated by the evaluation of physical data, melting point, weight variation, and spectrophotometric assay. For each single compound, the tests were performed on a series of samples, with the weight of 100 milligrams, added for the wet tests with 1 ml of distilled water. […] The sample were kept in a thermostat at increasing temperatures, i.e. from 25° to 80° C. […] The temperature, programmed according to the Rogers' formula, resulted to be 40° C. at the end of the first hour, 50° C. at the end of the second hour, 57° C. at the end of the third hour, 63° C. at the end of the fourth hour, 69° C. at the end of the fifth hour, 73° C. at the end of the sixth hour, 77° C. at the end of the seventh hour and, as already specified, 80° C. at the end of the eighth hour.
In the case of the wet-treated samples, the final weight was only established on the samples No. 10 brought to dryness at 60° C. under vacuum after an 8-hour heating.

[3] = system: SO2-induced experimental bronchitis; test: Experimental bronchitis in the rat (SO2 inhalation); assay type: in vivo, male rats, Sprague-Dawley strain; parameters: key to Macroscopic Examination, significance vs. controls (S) / Visualization of the bronchial tract, significance vs. controls (S) / Microscopic Examination, significance vs. controls (S): h.s.: highly significant; conditions: 50 mg/kg; for Visualization of the bronchial tract score (E, mean ± standard error): control 2.50 ± 0.26; for Microscopic Examination score (E, mean ± standard error): control 2.75 ± 0.16
Method: For the purpose 40 male rats, Sprague-Dawley strain, 320-370 grams, subdivided into 4 groups each consisting of 10 elements were subjected to the following treatments:
Group 1: poisoning treatment (SO2)
For the poisoning-induction the animals were subjected to a constant air flow containing SO2 at a 0.03 percent concentration. The poisoning treatment was given for 15 days subjecting the rats, 2 hours daily, to an inhalation of SO2 for 15-minute periods. […] The animals were killed on the day following the last inhalation.
The lungs were withdrawn together with the trachea, fixed in 10 percent formalin, and subjected to a macroscopic examination, dipped thereafter into the same fixing fluid for 24 hours, and thereafter for one hour in absolute ethanol.
The bronchial tree was thereafter evidenced with alcian blue; moreover, a subsequent staining was made with the Schiff's reagent in order to evidence the muchopolysaccharides.
Each lung was given the following arbitary score:
(1) Macroscopic Examination:
5=large hemorrhagic spots
(2) Visualization of the Bronchial Tree with Alcian Blue:
1=almost uniform staining
3=quite irregular staining.
(3) Bronchopulmonary Alterations at the Microscopic Examination: […]

[4] = system: histamine-induced bronchial spasm; test: Bronchial spasm due to histamine aerosol in the guinea-pig; assay type: in vivo, spotted guinea-pigs, male, Morini strain; parameters: key to time of resistance to the spasm, significance vs. controls (S): h.s.: highly significant; conditions: 50 mg/kg; for time of resistance to the spasm, significance vs. controls (S): one hour; for time of resistance to the spasm (E, mean ± standard error): one hour after treatment, control 114.1 ± 5.4
Method: Thirty spotted guinea-pigs, male, Morini strain, 400-500 g bodyweight, were used for the investigation, subdivided into 5 lots, each consisting of 6 animals. The animals were singly placed in a tightly sealed plexiglas cage into which a 0.1 percent aqueous solution of histamine hydrochloride was aerosolized. The time of resistance to the spasm was calculated from the moment of introduction into the cage up to the time of the appearance of the dyspnea crisis.
Group 1: controls with no treatment
In any case, the dose was 50 mg/kg.

[5] = system: elderly patients; assay type: in vivo, man
Method: The drug was assessed, with respect to its mucolytic action, on thirty elderly patients ([…], maximal 87, mean age 72). […] The improvement was assessed on the basis of the following parameters:
decrease of the daily quantity of sputum;
decrease of the viscosity of the sputum;
increase of the Tiffeneau's index;
improved value of the erythrocyte sedimentation rate.
A group of twenty patients, in the same mean age, was given for control purposes a known drug such as N-acetylcysteine.

[6] = group 3, aerosol (so in the source)

CC(SC(=O)c1cccs1)C(=O)NCC(=O)O (centres unmarked) [compound (I), 2-(2-thenoylthio)-propionylglycine]
serum concentrations of SGPT ([1]; oral, 200 and 300 mg/kg, bromobenzene-poisoned rat): significant reduction of the serum concentrations of SGPT | liver impairment induced by bromobenzene ([1]; oral, 200 and 300 mg/kg, rat): able to reduce the liver impairment | sleeping time (Nembutal) ([1]; oral, 200 and 300 mg/kg, Nembutal 25 mg/kg ip): statistically significant decrease of the sleeping time | rate of excretion of bromophthalein ([1]; vs poisoned controls, bromophthalein 50 mg iv, 30 minutes): less evident | Content [2]: 100.0% | E at 292 nm ([2]; as such): 0.438 | remaining at 1.5 h ([2]; dry): 99.8% | remaining at 3 h ([2]; dry): 99.8% | remaining at 5.25 h ([2]; dry): 100% | remaining at 8 h ([2]; dry): 99.8% | E at 292 nm ([2]; sample 1, dry): 0.440 | E at 292 nm ([2]; sample 2, dry): 0.435 | E at 292 nm ([2]; sample 3, dry): 0.440 | E at 292 nm ([2]; sample 4, dry): 0.440 | E at 292 nm ([2]; sample 6, wet): 0.455 | E at 292 nm ([2]; sample 7, wet): 0.450 | E at 292 nm ([2]; sample 8, wet): 0.435 | E at 292 nm ([2]; sample 9, wet): 0.412 | Macroscopic Examination, significance vs. controls (S) ([3]; group 2, aerosol): h.s. | Microscopic Examination, significance vs. controls (S) ([3]; group 2, aerosol): h.s. | Visualization of the bronchial tract, significance vs. controls (S) ([3]; group 2, aerosol): h.s. | Visualization of the bronchial tract score (E, mean ± standard error) ([3]; group 2, aerosol): 0.87 ± 0.29 | Microscopic Examination score (E, mean ± standard error) ([3]; group 2, aerosol): 0.87 ± 0.29 | Macroscopic Examination, significance vs. controls (S) [3, 6]: h.s. | Microscopic Examination, significance vs. controls (S) [3, 6]: h.s. | Visualization of the bronchial tract, significance vs. controls (S) [3, 6]: h.s. | Visualization of the bronchial tract score (E, mean ± standard error) [3, 6]: 0.87 ± 0.29 | Microscopic Examination score (E, mean ± standard error) [3, 6]: 0.75 ± 0.31 | Macroscopic Examination score (E, mean ± standard error) ([3]; group 3, aerosol (so in the source), control 4.00 ± 0.26): 1.12 ± 0.39 | Macroscopic Examination, significance vs. controls (S) ([3]; group 4, subcutaneous): h.s. | Microscopic Examination, significance vs. controls (S) ([3]; group 4, subcutaneous): h.s. | Visualization of the bronchial tract, significance vs. controls (S) ([3]; group 4, subcutaneous): h.s. | Visualization of the bronchial tract score (E, mean ± standard error) ([3]; group 4, subcutaneous): 0.75 ± 0.31 | Microscopic Examination score (E, mean ± standard error) ([3]; group 4, subcutaneous): 1.00 ± 0.26 | protective action, experimental bronchitis (SO2) ([3]; rat): marked protective action | bronchial-spasm relieving action ([4]; all the assessed routes): remarkable bronchial-spasm relieving action | time of resistance to the spasm, significance vs. controls (S) ([4]; group 2, orally): h.s. | time of resistance to the spasm (E, mean ± standard error) ([4]; group 2, orally, before treatment 116.00 ± 8.84): 184.7 ± 14.2 s | time of resistance to the spasm, significance vs. controls (S) ([4]; group 3, aerosol): h.s. | time of resistance to the spasm (E, mean ± standard error) ([4]; group 3, aerosol, before treatment 113.00 ± 5.62): 170.3 ± 10.9 s | time of resistance to the spasm, significance vs. controls (S) ([4]; group 4, intraperitoneally): h.s. | time of resistance to the spasm (E, mean ± standard error) ([4]; group 4, intraperitoneally, before treatment 112.16 ± 7.9): 187.2 ± 16.1 s | time of resistance to the spasm, significance vs. controls (S) ([4]; group 5, rectally): h.s. | time of resistance to the spasm (E, mean ± standard error) ([4]; group 5, rectally, before treatment 117.5 ± 6.39): 178.5 ± 11.9 s | rapidity of action vs N-acetylcysteine ([5]; elderly patients): markedly better in terms of rapidity of action | fit of cough on aerosol administration ([5]; in vivo): no fit of cough was observed | patients with a marked improvement ([5]; of thirty elderly patients, two suppositories daily, each 0.36 grams, six days): Twenty-six
